Experimental data: paper PMC10859961, “Ir(III) Half-Sandwich Photosensitizers with a π-Expansive Ligand for Efficient Anticancer Photodynamic Therapy” (Journal of Medicinal Chemistry, 2024)
Read-outs that look alike come from different tables or passages of the source.

Legend:
calf thymus DNA (CT-DNA) = assay: Competitive EtBr displacement assay; type: binding; conditions: CT-DNA saturated with EtBr; 1 h, room temperature; read-out: C50 (50% reduction of EtBr fluorescence)
Method: To investigate the capacity of the complexes to intercalate into DNA, the competitive ethidium displacement assay was carried out as previously described[149] with minor modifications. Stock solutions of 20 μM calf thymus DNA (CT-DNA) and 25 μM Ethidium bromide (EtBr) were prepared in saline TE (50 mM NaCl, 10 mM tris(hydroxymethyl) aminomethane–HCl, 0.1 mM ethylenediaminetetracetic acid (EDTA), pH 7.4). Serial dilutions of metal complexes were prepared at concentrations ranging from 20 to 400 μM from a 1 mM stock solution containing 20% DMSO. The assay was carried out by mixing 25 μL of CT-DNA and 25 μL of EtBr with 50 μL of each compound dilution, on a black 96-well plate. The plate was incubated at room temperature for 1 h and the fluorescence was measured on a Synergy 4 microplate reader (Biotek, Winooski), with excitation wavelength set to 500 nm, and emission wavelength set to 530–800 nm. The fluorescence emission at 590 nm was used to measure the C50, corresponding to the concentration of compound required to induce a 50% decrease in the fluorescence of the EtBr. Experiments were performed in triplicate.

[1] = Photocatalytic NADH oxidation (UV-vis); type: biochemical; parameters: key: TON = ΔNADH concentration after 1 h / photocatalyst concentration; conditions: first hour, complex 2.5 μM, NADH 100 μM
Method: Fresh stock solutions of the complexes at 7.50 μM in H2O/MeOH mixture (97.5/2.5, v/v) and NADH at 300 μM in H2O/MeOH mixture (97.5/2.5, v/v) were prepared. In a quartz cell, 1 mL of complex solution, 1 mL of NADH solution, and 1 mL of solvent mixture were mixed to prepare a final solution with 2.50 μM complex and 100 μM NADH (complex/NADH rate = 1/40). The solutions were studied by recording UV–vis absorption spectra in dark conditions and under blue light irradiation (λexc = 470 nm, “Medusa” photoreactor) at ambient temperature and various time intervals for 8 h. In addition, a solution of NADH at 100 μM was studied under blue light irradiation to confirm its photostability. The photocatalytic rate of the photosensitizers was evaluated by monitoring its absorbance decrease at 340 nm, which correspond to NADH oxidation.
The turnover numbers (TONs) of complexes were calculated by measuring the absorption difference at 340 nm after 1 h of reaction. TON was calculated from the difference in NADH concentration after 1 h divided by the concentration of photocatalyst (eq 5), where b is the optical path length (1 cm). The concentration of NADH was obtained using the extinction coefficient ε340 = 5751 M^–1 cm^–1.[40],[148] [drawing 26] 5

A549 cancer cells = assay: MTT cell viability assay, dark or photoactivated; type: cell-based, human; conditions: A549; for IC50: 4 h incubation; for IC50 / PI blue light (IC50,dark/IC50,light) / PI green light (IC50,dark/IC50,light) / PI red light (IC50,dark/IC50,light): MTT; for PI blue light (IC50,dark/IC50,light): blue light 460 nm; for PI blue light (IC50,dark/IC50,light) / PI green light (IC50,dark/IC50,light) / PI red light (IC50,dark/IC50,light): 24.1 J cm^–2; for PI green light (IC50,dark/IC50,light): green light 530 nm; for PI red light (IC50,dark/IC50,light): red light 655 nm; for PI/Dose: dose 24.1 J cm‐2, PI from MTT
Method: Cells were cultured in 96-well plates at a density of 3000 (A549), 2500 (HeLa), or 5000 (PC-3, 1BR.3.G, and MRC-5) cells per well in cell culture medium and allowed to attach for 24 h. Solutions of the complexes at different concentrations were prepared for cell treatments. In all cases, the solid compounds were weighed using an analytical balance (Mettler Toledo AX205DR) to ensure precise measurements. Subsequently, 5 mM solutions were prepared using DMSO. Solutions were then diluted in water to reach a concentration of 1 mM and then, aliquots were taken and diluted in culture medium to obtain solutions ranging from 0 to 50 μM. […] The cells were treated with these solutions in dark conditions or following the photoactivation protocol (see below). 48 h later the treatments were removed, and cells were washed with phosphate-buffered saline (PBS).
Initially, the effect of the complexes on the cell viability was determined by the 3-(4,5-dimethylthiazol-2-yl)-2,5-diphenyltetrazolium bromide (MTT) assay.[147] The cells were incubated for 2 h with 100 μL of culture medium together with 10 μL of MTT (Sigma-Aldrich) at 0.5 mg/mL. After discarding the medium, DMSO was added to each well to dissolve the purple formazan crystals. The absorbance of each well was determined on a Multiscan Plate Reader (Synergy 4, Biotek, Winooski) at a wavelength of 570 nm. Cell viability was also assessed using the CyQUANT Direct Cell Proliferation Assay (Thermo Fisher Scientific), following the manufacturer’s instructions. Briefly, after the treatments, the cells were washed with PBS, and an equal volume of culture medium and CyQUANT mix was added to each well. The plates were then incubated for 1 h at 37 °C. Subsequently, the fluorescence intensity was bottom read using a Multiscan Plate Reader (Synergy 4, Biotek, Winooski) with excitation and emission filters of 485 and 528 nm, respectively. In both assays, at least three replicates were measured for each treatment. The concentration that reduces the cell viability by 50% (IC50) was established using the Gen5 software (BioTek). Three independent experiments were carried out for each compound. […] The phototoxicity index (PI = IC50,dark/IC50,light) was determined.
To assess the photodynamic activity of the complexes, cells were incubated with the complexes for 4 h to enable their intracellular accumulation. The cells were then irradiated with light with a wavelength of 460 nm (blue), 530 nm (green), or 655 nm (red) for 1 h using a LED system (LuxLight) with an effective power of 6.7 mW cm^–2, which provides a total light dose of 24.1 J cm^–2. The LED system was positioned at 25 mm from the cell culture plates.

[2] = blue light 460 nm 1 h (24.1 J cm^–2), 48 h, read-out: IC50 blue light
[3] = green light 530 nm 1 h (24.1 J cm^–2), 48 h, read-out: IC50 green light
[4] = kept in the dark, viability after 48 h, read-out: IC50 dark
[5] = red light 655 nm 1 h (24.1 J cm^–2), 48 h, read-out: IC50 red light

Row | Structure (SMILES) | IC50 (calf thymus DNA (CT-DNA)) [µM] | TON1h (NADH oxidation) ([1]; 470 nm blue light) | TON1h (NADH oxidation) ([1]; dark) | IC50 (A549 cancer cells; [2]) [nM] | IC50 (A549 cancer cells; [3]) [nM] | IC50 (A549 cancer cells; [4]) [nM] | PI blue light (IC50,dark/IC50,light) (A549 cancer cells) | PI green light (IC50,dark/IC50,light) (A549 cancer cells) | IC50 (A549 cancer cells; [5]) [nM] | PI red light (IC50,dark/IC50,light) (A549 cancer cells) | PI/Dose (A549 cancer cells; 530 nm) | PI/Dose (A549 cancer cells; 460 nm) | PI/Dose (A549 cancer cells; 655 nm)
1 | Cc1c(C)c(C)[c-](C)c1C.F[B-](F)(F)F.c1ccc(Cn2cc[n+]([Ir]3[c]4cccc5c6nc7ccccc7nc6c6ccc[n+]3c6c45)c2)cc1 [complex 7, [(η^5-C5Me5)Ir(bzIm)(pbpz)]BF4] | 95.4 | 4.54 | 0.12 | 650 ± 200 | 470 ± 40 | 770 ± 200 | 1.2 | 1.7 | – | – | – | – | –
2 | Cc1c(C)c(C)[c-](C)c1C.[Cl][Ir]1[c]2cccc3c4nc5ccccc5nc4c4ccc[n+]1c4c23 [complex 1, [(η^5-C5Me5)IrCl(pbpz)]] | 192 | 12.47 | 0.16 | 2900 ± 400 | 5800 ± 100 | 8000 ± 1000 | – | 1.4 | – | – | – | – | –
3 | Cc1c(C)c(C)[c-](C)c1C.F[B-](F)(F)F.c1ccc(Cn2cc[n+]([Ir]3[c]4cccc5c6nc7cc8ccccc8cc7nc6c6ccc[n+]3c6c45)c2)cc1 [complex 8, [(η^5-C5Me5)Ir(bzIm)(pbpn)]BF4] | 15.9 | 5.75 | 0.14 | 0.2 ± 0.1 | 2.1 ± 0.4 | 150 ± 50 | – | 71 | 30 ± 20 | 5 | – | – | –
4 | Cc1c(C)c(C)[c-](C)c1C.F[B-](F)(F)F.c1ccc2nc3c4ccc[n+]5c4c4[c](cccc4c3nc2c1)[Ir]5[n+]1ccn(CCN2CCCCC2)c1 [complex 5, [(η^5-C5Me5)Ir(Imepip)(pbpz)]BF4] | 54.6 | 2.36 | 0.37 | 390 ± 100 | 520 ± 20 | 830 ± 20 | 2.1 | 1.6 | – | – | – | – | –
5 | Cc1c(C)c(C)[c-](C)c1C.F[B-](F)(F)F.c1ccc2cc3nc4c5ccc[n+]6c5c5[c](cccc5c4nc3cc2c1)[Ir]6[n+]1cc[nH]c1 [complex 4, [(η^5-C5Me5)Ir(Im)(pbpn)]BF4] | 15.9 | 9.71 | 0.31 | 3.2 ± 2 | 10 ± 3 | 2900 ± 1000 | – | 294 | 120 ± 50 | 25 | 12.2 | – | –
6 | Cc1c(C)c(C)[c-](C)c1C.F[B-](F)(F)F.c1ccc2cc3nc4c5ccc[n+]6c5c5[c](cccc5c4nc3cc2c1)[Ir]6[n+]1ccn(CCN2CCCCC2)c1 [complex 6, [(η^5-C5Me5) Ir(Imepip)(pbpn)]BF4] | 32.8 | 7.79 | 0.94 | 1.5 ± 0.5 | 11 ± 4 | 2000 ± 100 | – | 179 | 32 ± 10 | 63 | – | 54.6 | 2.6
